Key:
[1] = tested on: EOL-1 cells; assay: EOL-1 subcutaneous model in athymic nude mice, third study
[2] = tested on: normal blood cells / normal progenitor cells versus AML progenitors; assay: Cytotoxicity on normal blood / normal progenitor cells versus AML progenitors; type: cell-based, human; conditions: FIG. 11E and FIG. 19
[3] = tested on: TF-1 cells; assay: Proliferation of TF-1 cells grown in the presence of GM-CSF (IL-3-dependence control); type: cell-based, human; conditions: GM-CSF 2 ng/mL
Description: (§1) The ability of anti-CD123 antibodies to inhibit IL3-mediated signaling and proliferation was examined in vitro using the erythroleukemia cell line TF-1 that can proliferate only in the presence of one of the following growth factors, either IL-3 or GM-CSF. TF-1 cells were cultured in the complete RPMI medium (RPMI-1640, 10% fetal bovine serum and 50 μg/mL gentamicin sulfate; all reagents were from Invitrogen) supplemented with GM-CSF (2 ng/mL). Prior to setting up the proliferation assays, the cells were washed and then starved of the growth factors overnight. […] TF-1 cells were plated at 6,000 cells per well in the complete RPMI medium in either the presence or absence of 10 μg/mL of an anti-CD123 antibody. A growth factor, either IL-3 (1 ng/mL) or GM-CSF (2 ng/mL), was added to the cells to initiate cell proliferation. […] The relative numbers of viable cells in each well were determined by the colorimetric WST-8 assay (Dojindo Molecular Technologies, Inc., Rockville, MD, US). WST-8 is reduced by dehydrogenases in viable cells to an orange formazan product that is soluble in tissue culture medium. The amount of formazan produced is directly proportional to the number of viable cells. […] Then the absorbance was measured on a plate-reader spectrophotometer in the dual wavelength mode 450 nm/650 nm, and the absorbance at the 650 nm (non-specific light scattering by cells) was subtracted from that at the 450 nm.

[4] = tested on: TF-1 cells; assay: Inhibition of IL-3-dependent proliferation of TF-1 cells (WST-8); type: cell-based, human; conditions: dose-response
Description: as §1, with “US).” for “US). WST-8 is reduced by dehydrogenases in viable cells to an orange formazan product that is soluble in tissue culture medium. The amount of formazan produced is directly proportional to the number of viable cells.”
TF-1 cells were plated at 6,000 cells per well in 100 μL culture medium. […] Relative cell number in each well was determined by WST-8 assay as described above. […]

Nc1ncn([C@@H]2O[C@H](CO)[C@@H](O)[C@H]2O)c(=O)n1 [Azacitidine]
% T/C (Day 16) ([1]; 3.75 mg/kg, q3d × 5, i.p.): 59% | CR ([1]; 3.75 mg/kg, q3d × 5, i.p.): 0/8 | PR ([1]; 3.75 mg/kg, q3d × 5, i.p.): 0/8 | Result ([1]; 3.75 mg/kg, q3d × 5, i.p.): Inactive

Nc1ccn([C@@H]2O[C@H](CO)[C@@H](O)[C@@H]2O)c(=O)n1 [Cytarabine]
% T/C (Day 16) ([1]; 75 mg/kg, qd × 5, i.p.): 84% | CR ([1]; 75 mg/kg, qd × 5, i.p.): 0/8 | PR ([1]; 75 mg/kg, qd × 5, i.p.): 0/8 | Result ([1]; 75 mg/kg, qd × 5, i.p.): Inactive

gemtuzumab ozogamicin [Mylotarg]
fold difference in cytotoxicity between normal blood/progenitor cells and AML progenitor cells [2]: 10 fold

B1: muCD123-3: murine anti-CD123 monoclonal antibody, HCVR SEQ ID NO: 26, LCVR SEQ ID NO: 27 (antibody, V domains shown)
VH: EFQLQQSGPEVVKPGASVKMSCKASGYTFTSYVMHWMKQKPGQGLEWIGYIKPYKDGTKYNEKFKGKATLISDKPSSTAYMELSSLTSEDSAVYYCAREGENGYYDAMDYWGQGTSVTVSS
VL: DIQMTQSPSSLSASLGGKVTITCKASQDINKYIAWYQHKPGKGPRLLIHYTSTLQPGIPSRFSGSGSGRDYSFSISNLEPEDIATYYCLQYDNLLYTFGGGTKLELKR
effect on TF-1 cell proliferation in the presence of GM-CSF [3]: no inhibitory effect

B2: muCD123-6: murine anti-CD123 monoclonal antibody, HCVR SEQ ID NO: 28, LCVR SEQ ID NO: 29 (antibody, V domains shown)
VH: EFQLQQSGPELVKPGASVKMSCKASGYIFTSSIMHWMKQKPGQGLEWIGYIKPYNDGTKYNEKFKGKATLTSDKSSSTANMELNSLTSEDSAVYYCAREGGNDYYDTMDYWGQGTSVTVSS
VL: DIKMTQSPSSMYASLGERVTITCKASQDINSYLSWFQQKPGKSPKTLIYRVNRLVDGVPSRFSGSGSGQDYSLTISSLEYEDMGIYYCLQYDAFPYTFGGGTKLEIKR
effect on TF-1 cell proliferation in the presence of GM-CSF [3]: no inhibitory effect

B3: muCD123-14: murine anti-CD123 monoclonal antibody, HCVR SEQ ID NO: 30, LCVR SEQ ID NO: 31 (antibody, V domains shown)
VH: EVKLVESGGDLVKPGGSLKLSCAASGFTFSNYAMSWVRQNSEKRLEWVATINSGGSFTYYPDSVKGRFTISRDNAKDSLYLQMSSLNSEDTAMYYCARQSEAYYGYDKRTWFAYWGQGTLVTVSS
VL: DILLTQSPAILSVSPGTRVSFSCRASQSVGTSIHWYQQRPNGFPRLLIKYASESISGIPSRFSGSGSGTDFTLNINSVESEDIADYYCQQSKSWPLTFGAGTKLELKR
effect on TF-1 cell proliferation in the presence of GM-CSF [3]: no inhibitory effect

B4: chCD123-6: chimeric antibody: mouse HCVR/LCVR SEQ ID NOs: 28 and 29 with human IgG1 and Kappa constant sequences (antibody, V domains shown)
VH: B2 VH
VL: B2 VL
modifications: human IgG1 and kappa constant regions
inhibition of IL-3-dependent proliferation of TF-1 cells (in words) [4]: completely inhibited at 1 nM | effect on TF-1 cell proliferation in the presence of GM-CSF [3]: no inhibitory effect
